These results are taken from patent US20250082610A1, “COMPOSITION, METHOD FOR MICROORGANISM GROWTH SUPPRESSION IN COMPOSITION FOR ORAL USE, AND AGENT FOR POTENTIATION OF MICROORGANISM-GROWTH-SUPPRESSING EFFECT OF QUERCETIN OR GLYCOSIDE THEREOF” (SUNTORY HOLDINGS LIMITED, priority 2022, published 2025).

One experiment has as its system Staphylococcus aureus. The note with it: Non-Patent Literature 1; cited from earlier work.
The subject of the next experiment is Escherichia coli. The following applies: Non-Patent Literature 1; cited from earlier work.
Experiment [1] has as its system human β-defensin-1 (hBD-1). The following applies: human immortalized keratinocyte cells (HaCaT cells); Patent Literature 1; cited from earlier work.
Experiment [2] deals with Escherichia coli NBRC 3972. The experiment can be described thus: Sterilizing (microorganism growth inhibiting) effect, viable bacterial count. The experiment is classed as cell-based. The following applies: one hour after inoculation, room temperature, phosphate-buffered saline, vs control; FIG. 1, result in words. Here is the method: Escherichia coli (Escherichia coli NBRC 3972) was used as a test bacterium. Escherichia coli was inoculated onto a standard agar medium and cultured at 30° C. to 35° C. for 24 hours. After culturing, the bacterial count was adjusted to […] using saline, whereby a test bacterial solution was obtained. Phosphate-buffered saline and ergothioneine were mixed to prepare a test sample 1 (ergothioneine concentration: 100 ppm (0.01 wt %)). Phosphate-buffered saline and isoquercitrin were mixed to prepare a test sample 2 (isoquercitrin concentration: 100 ppm (0.01 wt %)). Phosphate-buffered saline, ergothioneine, and isoquercitrin were mixed to prepare a test sample 3 (ergothioneine concentration: 2.5 ppm (0.00025 wt %), isoquercitrin concentration: 100 ppm (0.01 wt %)). Phosphate-buffered saline, ergothioneine, and isoquercitrin were mixed to prepare a test sample 4 (ergothioneine concentration: 100 ppm (0.01 wt %), isoquercitrin concentration: 100 ppm (0.01 wt %)). Phosphate-buffered saline was used as control. A test sample (5 mL) was inoculated with a 0.05 mL test bacterial solution and left standing at room temperature. […] After culturing, the number of colonies formed was counted, and the viable bacterial count was calculated (n=3). The sterilizing effect (%) was determined from the viable bacterial count (average of n=3) using the following formula. […]

Experiment [3] relates to human β-defensin-3 (hBD-3). The following applies: human immortalized keratinocyte cells (HaCaT cells); Patent Literature 1; cited from earlier work.

As for `O=c1c(O)c(-c2ccc(O)c(O)c2)oc2cc(O)cc(O)c12` [quercetin], the “inhibition of growth of Staphylococcus aureus” value with Staphylococcus aureus is recorded as “inhibition of growth”. For the same compound, in the experiment with Escherichia coli, the “inhibition of growth of Escherichia coli” value was “inhibition of growth”.
Consider `C[N+](C)(C)[C@@H](Cc1c[nH]c(=S)[nH]1)C(=O)[O-]` [L-ergothioneine], for which the “expression level of mRNA in hBD-1” value in experiment [1] is listed as “increased”. The “Sterilizing effect on Escherichia coli” value in experiment [2] is recorded as “no sterilizing effect”. Also, in experiment [3], the “expression level of mRNA in hBD-3” value is reported as “increased”.
